Measured values taken from ChEMBL document CHEMBL6078646, “Target Ligand Separation and Identification of Isoforsythiaside as a Histone Lysine-Specific Demethylase 1 Covalent Inhibitor Against Breast Cancer Metastasis” (J Med Chem, 2024).
Each block holds one molecule with its values, some of them ahead of it. Active and inactive are the calls of the source. The rule behind the calls is not given here. Residues, ends and D or L forms follow the SMILES beside them. *: point of attachment. Cbz = O=C(OCc1ccccc1)*

Tests used:
[1] = target: T1, Lysine-specific histone demethylase 1A (Homo sapiens, UniProt O60341); test: Inhibition of recombinant His-tagged LSD1 (157 to 852 residues) (unknown origin) expressed in Escherichia coli BL21 (DE3) cells using H3K4me2 peptide as substrate incubated for 30 mins by fluorescence microplate reader analysis
[2] = Retention time of the compound by HPLC-MS/MS analysis; type: physicochemical
[3] = test system: MDA-MB-231; test: Upregulation of RBMS3 protein expression in human MDA-MB-231 cells at 16 uM by Western blotting analysis; type: functional, cell-based
[4] = test system: MDA-MB-231; test: Inhibition of Twist1 production in human MDA-MB-231 cells at 16 uM by Western blotting analysis; type: functional, cell-based
[5] = test system: MDA-MB-231; test: Inhibition of MMP2 production in human MDA-MB-231 cells at 16 uM by Western blotting analysis; type: functional, cell-based
[6] = target: T1, Lysine-specific histone demethylase 1A; test: Binding affinity to recombinant LSD1 (unknown origin) at S817 residue by LC-MS/MS analysis
[7] = test system: MDA-MB-231; test: Antimetastatic activity against human MDA-MB-231 cells expressing luciferase xenografted in female Balb/c nude mouse assessed as reduction in fluorescence intensity in lungs at 10 mg/kg, ip administered every 3 days and measured on day 15 by bioluminescence imaging analysis relative to control; type: functional; design: scale not given: the % may be the effect or the level left; details: time 15 day
[8] = test system: MDA-MB-231; test: Antimetastatic activity against human MDA-MB-231 cells expressing luciferase xenografted in female Balb/c nude mouse assessed as reduction in number of metastatic nodules in the lung at 10 mg/kg, ip administered every 3 days and measured after 30 days by H and E staining based histopathological analysis relative to control; type: functional; design: scale not given: the % may be the effect or the level left; details: time 30 day
[9] = test system: MDA-MB-231; test: Antimetastatic activity against human MDA-MB-231 cells expressing luciferase xenografted in female Balb/c nude mouse assessed as smaller metastatic nodules in lung at 10 mg/kg, ip administered every 3 days and measured after 30 days by H and E staining based analysis; type: functional, organism-based; details: time 30.0 day
[10] = test system: MDA-MB-231; test: Antitumor activity against human MDA-MB-231 cells expressing luciferase xenografted in female Balb/c nude mouse assessed as increase in body weight at 10 mg/kg, ip administered every 3 days and measured after 33 days; type: functional, organism-based; details: time 33.0 day
[11] = test system: MDA-MB-231; test: Antimetastatic activity against human MDA-MB-231 cells expressing luciferase xenografted in female Balb/c nude mouse assessed as reduction in lung metastasis at 10 mg/kg, ip administered every 3 days and measured on day 30 by bioluminescence imaging analysis; type: functional, organism-based; details: time 30.0 day
[12] = test system: MDA-MB-231; test: Induction of LSD1 degradation in human MDA-MB-231 cells incubated for 12 hrs by Western blotting analysis; type: cell-based

IC50 [1]: 3.6 µM | Retention_time [2]: 25.8 min
SMILES: C[C@@H]1O[C@@H](O[C@@H]2[C@@H](O)[C@H](OCCc3ccc(O)c(O)c3)O[C@H](CO)[C@H]2OC(=O)/C=C/c2ccc(O)c(O)c2)[C@H](O)[C@H](O)[C@H]1O [ACETOSIDE]

IC50 [1]: 5.51 µM | Retention_time [2]: 40.6 min
SMILES: COc1ccc([C@@H]2OC[C@H]3[C@@H]2CO[C@@H]3c2ccc(O[C@H]3O[C@H](CO)[C@@H](O)[C@H](O)[C@H]3O)c(OC)c2)cc1OC

Second part, the molecule before the results:

SMILES: C[C@@H]1O[C@@H](OC[C@H]2O[C@@H](OCCc3ccc(O)c(O)c3)[C@H](O)[C@@H](O)[C@@H]2OC(=O)/C=C/c2ccc(O)c(O)c2)[C@H](O)[C@H](O)[C@H]1O [FORSYTHIASIDE]
IC50 [1]: 8.08 µM | Retention_time [2]: 31.9 min

SMILES: N[C@H]1CC[C@H](N[C@@H]2C[C@H]2c2ccccc2)CC1
AC30 [3]: Active | inhibition [4]: Active | inhibition [5]: Active

SMILES: C[C@@H]1O[C@H](OC[C@H]2O[C@@H](OCCc3ccc(O)c(O)c3)[C@H](O)[C@@H](OC(=O)CCc3ccc(O)c(O)c3)[C@@H]2O)[C@H](O)[C@H](O)[C@H]1O
inhibition [1]: inactive | Activity [6]: inactive

SMILES: CC(=O)O[C@H]1C(=O)[C@@]2(C)[C@H]([C@H](OC(=O)c3ccccc3)[C@]3(O)C[C@H](OC(=O)[C@H](O)[C@@H](NC(=O)c4ccccc4)c4ccccc4)C(C)=C1C3(C)C)[C@]1(OC(C)=O)CO[C@@H]1C[C@@H]2O [PACLITAXEL]
IC50 [1]: 0.0296 µM | Activity [7]: 89.6% | Activity [8]: 55.5% | Activity [9]: Active | Activity [10]: Active; Slight Attenuation Of Body Weight Loss Observed | Activity [11]: Active

SMILES: CC(C)C[C@@H](C=O)NC(=O)[C@H](CC(C)C)NC(=O)[C@H](CC(C)C)NC(=O)OCc1ccccc1 (Cbz-Leu-Leu-Leu-aldehyde)
Activity [12]: inactive
